Tested on: ROS/RNS generation in RAW 264.7 cells
Experiment: Intracellular ROS/RNS levels in LPS-induced RAW 264.7 cells (H2DCF-DA)
Format: cell-based
Details: Mus musculus, RAW264.7; RAW 264.7 cells, H2DCF-DA dye, LPS 1 μg/mL; read-out: IC50, inhibition of LPS-induced ROS/RNS generation
Procedure: To measure the formation of intracellular ROS and RNS, we utilized the fluorogenic dye 2′,7′-dichlorodihydrofluorescein diacetate (Cat. No. 4091-99-0, H2DCF-DA, Abcam, Boston, MA, USA). This dye detects hydrogen peroxide, peroxyl radicals, and peroxynitrite anions (Kwon et al. [2019]). In brief, RAW 264.7 cells were seeded into a black 96-well plate (Cat. No. 165305, Thermo Fisher, USA) at 4 × 10^4 cells per well and incubated for 24 hr at 37 °C in 5% CO2. Afterward, the cells were treated with or without a sample for 4 hr before adding 1 μg/mL LPS (Cat. No. 00-4976-93, Thermo Fisher, USA) for 20 hr. Once this incubation was complete, the cells were washed twice with fetal bovine serum (FBS)-free media (Cat. No. A5256701, Thermo Fisher, USA) and stained with 10 μM H2DCF-DA (Cat. No. D399, Thermo Fisher, USA) in FBS-free media for 30 min at 37 °C, protected from light. Next, the dye-containing media was discarded, and the cells were washed twice with fresh serum-free media. The relative fluorescent intensity of the cells was measured using a fluorescence plate reader (Synergy H1, BioTeK, Winooski, VT, USA) with excitation/emission at 485 nm/535 nm. Curcumin (Cat. No. C1386-5G, Millipore Sigma, Burlington, MA, USA), a natural phenolic compound with antioxidant activity, was used as positive control. All samples were tested in triplicates. A sulforhodamine B (SRB) assay was conducted to assess cellular viability under a similar experimental setup. The final percentage of inhibition of ROS/RNS generation was calibrated using the % of cell viability.

COc1cc(/C=C/C(=O)CC(=O)/C=C/c2ccc(O)c(OC)c2)ccc1O [Curcumin, reference compound]
IC50: 7.6 ± 0.1 µM

From PMC12203697, “Bioactive constituents from the edible seaweed Halymenia hawaiiana (Rhodophyta)” (Pharmaceutical Biology, 2025)
